# Measurements taken from patent US20170318812A1, “Plant and Crop Growth Regulating/Biostimulant Formulations and Methods of Use” (Arysta Lifescience North America, LLC, priority 2014, published 2017).
# Test system: TRZAX Triticum aestivum (Soft wheat)
# Assay: Ipfencarbazone biostimulant effect, early post emergence foliar application, greenhouse pots, plant height: wheat
# Assay type: in vivo
# Description: The original objective of this Example was to evaluate the herbicidal effect of ipfencarbazone when applied as a post emergent treatment to a range of selected crops and weeds. Unexpectedly, crop plant growth stimulation was observed. The actual species of weeds and crops are listed in the summary data tabulated below and in FIGS. 1-13. By convention each plant species has a Bayer code (5-letter name) with the scientific name for the plant referenced in FIGS. 1-13. In each Figure, each tray contains the same configuration of weeds and/or crops. In each Figure there is one replication of each treatment (six treatments in total). The top three photographs in each Figure show the Bayer Codes and bottom three photographs are aligned with the top three facilitating viewing of the same plant species. Throughout the Examples various abbreviations as conventional shorthand notation and will be appreciated by those skilled in the art. Some exemplary abbreviations include, “CV”=Co-efficient of Variation,” “LSD”=Least Significant Difference” (G/L (gram per L) AND GA/L (gram of active ingredient per L); “SC”=suspension concentrate formulation. The diluent in all treatments was water. By convention factors that are identical in all treatments (e.g. diluent and surfactant) are not listed in each treatment.
# Methods: The indicated size pots (see Tables below) are filled with a specific soil, the soil properties being indicated below. The referenced crops and weeds are planted by hand in each pot. […] The experiments include six treatments each replicated three times on each crop/weed species. At a specific time after emergence each crop and weed species was treated with ipfencarbazone plus a non-ionic surfactant (NIS). In the present Example, the surfactant employed was ENERGIC™ (non-ionic surfactant). The application timing is indicated in each of the Tables (1 or 2 leaf stage) below. Ipfencarbazone plus surfactant was diluted in water and applied at a rate equivalent to about 250 L/ha. Ipfencarbazone was applied using a track sprayer. After treatment, the pots were randomized in a greenhouse. At each assessment (indicated by “days after treatment” or DAT) the height of each plant was measured. The letters next to each mean indicate the level of statistical significance.
# Replications: 3, Untreated treatments: 1, Design: Randomized Complete Block (RCB), Treatment units: Treated ‘Plot’ experimental unit size, Dry Form. Unit: %, Treated ‘Plot’ experimental unit size Width: 1 meter, Treated ‘Plot’ experimental unit size Length: 1.4 meters, Application volume: 250 L/ha, Mix size: 0.15 liters, […]
# [1] = TRZAX BRS327, 125 g ai/ha, 15 DA-A
# [2] = TRZAX BRS327, 125 g ai/ha, 28 DA-A
# [3] = TRZAX BRS327, 250 g ai/ha, 15 DA-A
# [4] = TRZAX BRS327, 250 g ai/ha, 28 DA-A
# [5] = TRZAX BRS327, 500 g ai/ha, 15 DA-A
# [6] = TRZAX BRS327, 500 g ai/ha, 28 DA-A
# [7] = TRZAX BRS327, 1000 g ai/ha, 15 DA-A
# [8] = TRZAX BRS327, 1000 g ai/ha, 28 DA-A
# [9] = TRZAX Iguaçú, 62.5 g ai/ha, 15 DA-A
# [10] = TRZAX Iguaçú, 62.5 g ai/ha, 28 DA-A
# [11] = TRZAX Iguaçú, 125 g ai/ha, 15 DA-A
# [12] = TRZAX Iguaçú, 125 g ai/ha, 28 DA-A
# [13] = TRZAX Iguaçú, 250 g ai/ha, 15 DA-A
# [14] = TRZAX Iguaçú, 250 g ai/ha, 28 DA-A
# [15] = TRZAX Iguaçú, 500 g ai/ha, 15 DA-A
# [16] = TRZAX Iguaçú, 500 g ai/ha, 28 DA-A
# [17] = TRZAX Iguaçú, 1000 g ai/ha, 15 DA-A
# [18] = TRZAX Iguaçú, 1000 g ai/ha, 28 DA-A
# [19] = TRZAX Itaipú, 62.5 g ai/ha, 15 DA-A
# [20] = TRZAX Itaipú, 62.5 g ai/ha, 28 DA-A
# [21] = TRZAX Itaipú, 125 g ai/ha, 15 DA-A
# [22] = TRZAX Itaipú, 125 g ai/ha, 28 DA-A
# [23] = TRZAX Itaipú, 250 g ai/ha, 15 DA-A
# [24] = TRZAX Itaipú, 250 g ai/ha, 28 DA-A
# [25] = TRZAX Itaipú, 500 g ai/ha, 15 DA-A
# [26] = TRZAX Itaipú, 500 g ai/ha, 28 DA-A
# [27] = TRZAX Itaipú, 1000 g ai/ha, 15 DA-A
# [28] = TRZAX Itaipú, 1000 g ai/ha, 28 DA-A
compound,measurement,setting,value
"CC(C)N(C(=O)n1cnn(-c2ccc(Cl)cc2Cl)c1=O)c1ccc(F)cc1F [ARY-0572-001, ipfencarbazone]","HEIGHT, treatment mean","TRZAX BRS327, 62.5 g ai/ha, 28 DA-A",33.0 a cm
same,"HEIGHT, percent of untreated check (APoC)",[1],(147.6%)
same,"HEIGHT, treatment mean",[1],27.6 a cm
same,"HEIGHT, percent of untreated check (APoC)",[2],(156.7%)
same,"HEIGHT, treatment mean",[2],35.0 a cm
same,"HEIGHT, percent of untreated check (APoC)",[3],(171.4%)
same,"HEIGHT, treatment mean",[3],32.0 a cm
same,"HEIGHT, percent of untreated check (APoC)",[4],(204.0%)
same,"HEIGHT, treatment mean",[4],45.6 a cm
same,"HEIGHT, percent of untreated check (APoC)",[5],(130.7%)
same,"HEIGHT, treatment mean",[5],24.4 a cm
same,"HEIGHT, percent of untreated check (APoC)",[6],(141.3%)
same,"HEIGHT, treatment mean",[6],31.6 a cm
same,"HEIGHT, percent of untreated check (APoC)",[7],(92.9%)
same,"HEIGHT, treatment mean",[7],17.3 a cm
same,"HEIGHT, percent of untreated check (APoC)",[8],(126.4%)
same,"HEIGHT, treatment mean",[8],28.2 a cm
same,"HEIGHT, percent of untreated check (APoC)",[9],(158.8%)
same,"HEIGHT, treatment mean",[9],24.6 a cm
same,"HEIGHT, percent of untreated check (APoC)",[10],(129.6%)
same,"HEIGHT, treatment mean",[10],29.2 bc cm
same,"HEIGHT, percent of untreated check (APoC)",[11],(168.5%)
same,"HEIGHT, treatment mean",[11],26.1 a cm
same,"HEIGHT, percent of untreated check (APoC)",[12],(133.5%)
same,"HEIGHT, treatment mean",[12],30.1 be cm
same,"HEIGHT, percent of untreated check (APoC)",[13],(193.2%)
same,"HEIGHT, treatment mean",[13],29.9 a cm
same,"HEIGHT, percent of untreated check (APoC)",[14],(192.1%)
same,"HEIGHT, treatment mean",[14],43.3 a cm
same,"HEIGHT, percent of untreated check (APoC)",[15],(153.4%)
same,"HEIGHT, treatment mean",[15],23.8 ab cm
same,"HEIGHT, percent of untreated check (APoC)",[16],(163.1%)
same,"HEIGHT, treatment mean",[16],36.8 ab cm
same,"HEIGHT, percent of untreated check (APoC)",[17],(105.4%)
same,"HEIGHT, treatment mean",[17],16.3 bc cm
same,"HEIGHT, percent of untreated check (APoC)",[18],(82.8%)
same,"HEIGHT, treatment mean",[18],18.7 c cm
same,"HEIGHT, percent of untreated check (APoC)",[19],(169.2%)
same,"HEIGHT, treatment mean",[19],23.8 abc cm
same,"HEIGHT, percent of untreated check (APoC)",[20],(154.6%)
same,"HEIGHT, treatment mean",[20],37.1 a cm
same,"HEIGHT, percent of untreated check (APoC)",[21],(181.4%)
same,"HEIGHT, treatment mean",[21],25.5 ab cm
same,"HEIGHT, percent of untreated check (APoC)",[22],(134.7%)
same,"HEIGHT, treatment mean",[22],32.3 a cm
same,"HEIGHT, percent of untreated check (APoC)",[23],(223.7%)
same,"HEIGHT, treatment mean",[23],31.4 a cm
same,"HEIGHT, percent of untreated check (APoC)",[24],(199.1%)
same,"HEIGHT, treatment mean",[24],47.8 a cm
same,"HEIGHT, percent of untreated check (APoC)",[25],(157.7%)
same,"HEIGHT, treatment mean",[25],22.2 abc cm
same,"HEIGHT, percent of untreated check (APoC)",[26],(100.0%)
same,"HEIGHT, treatment mean",[26],24.0 a cm
same,"HEIGHT, percent of untreated check (APoC)",[27],(111.5%)
same,"HEIGHT, treatment mean",[27],15.7 bc cm
same,"HEIGHT, percent of untreated check (APoC)",[28],(76.9%)
same,"HEIGHT, treatment mean",[28],18.4 a cm
